Experimental data as given in patent publication US20260070895A1, “CRYSTALLINE FORMS” (QUIMATRYX, S.L., priority 2022, published 2026).

Columns and labels:
[1] = Genotoxicity (clastogenicity, aneugenicity); settings: unlike other histone deacetylase inhibitors
[2] = Pharmacokinetic properties; type: in vivo; settings: compared with other histone deacetylase inhibitors
[3] = Solubility and stability of QTX125 in aqueous solution (background); type: physicochemical
HDAC 6 = target: T1, HDAC 6 (Homo sapiens, UniProt Q9UBN7); settings: cited from earlier work
T1 sequence (Q9UBN7 1-1215): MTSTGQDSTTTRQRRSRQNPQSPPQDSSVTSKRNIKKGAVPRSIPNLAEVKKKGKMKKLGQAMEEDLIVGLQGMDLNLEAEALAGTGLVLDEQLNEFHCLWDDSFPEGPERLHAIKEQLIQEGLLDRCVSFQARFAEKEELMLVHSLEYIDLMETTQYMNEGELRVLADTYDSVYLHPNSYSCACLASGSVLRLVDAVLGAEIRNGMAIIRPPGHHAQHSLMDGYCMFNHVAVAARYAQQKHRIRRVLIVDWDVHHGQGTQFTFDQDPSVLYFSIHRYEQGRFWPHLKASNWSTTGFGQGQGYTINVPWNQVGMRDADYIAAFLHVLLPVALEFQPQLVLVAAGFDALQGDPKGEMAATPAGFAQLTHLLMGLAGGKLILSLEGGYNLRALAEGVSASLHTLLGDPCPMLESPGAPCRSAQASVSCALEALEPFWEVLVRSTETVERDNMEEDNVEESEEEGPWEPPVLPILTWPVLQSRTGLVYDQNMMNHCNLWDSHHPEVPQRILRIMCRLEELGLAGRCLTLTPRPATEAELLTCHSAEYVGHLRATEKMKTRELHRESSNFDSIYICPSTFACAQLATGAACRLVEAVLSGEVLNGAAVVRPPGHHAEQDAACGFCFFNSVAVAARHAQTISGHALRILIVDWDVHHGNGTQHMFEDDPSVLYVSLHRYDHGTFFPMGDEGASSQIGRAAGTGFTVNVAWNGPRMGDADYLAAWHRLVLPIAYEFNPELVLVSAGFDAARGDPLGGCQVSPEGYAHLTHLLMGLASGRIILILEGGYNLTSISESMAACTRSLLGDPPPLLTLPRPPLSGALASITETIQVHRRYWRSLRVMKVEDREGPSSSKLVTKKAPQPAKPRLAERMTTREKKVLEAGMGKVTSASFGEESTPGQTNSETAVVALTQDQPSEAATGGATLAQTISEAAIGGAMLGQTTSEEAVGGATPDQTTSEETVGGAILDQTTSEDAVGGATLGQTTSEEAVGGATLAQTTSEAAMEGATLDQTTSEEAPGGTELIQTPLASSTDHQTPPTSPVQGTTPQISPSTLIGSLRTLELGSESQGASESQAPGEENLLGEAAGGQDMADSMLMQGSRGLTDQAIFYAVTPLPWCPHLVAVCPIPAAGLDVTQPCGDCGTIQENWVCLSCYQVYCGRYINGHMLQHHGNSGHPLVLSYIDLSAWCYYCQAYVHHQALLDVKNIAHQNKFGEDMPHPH

[4] = system: mantle cell lymphoma, lung cancer and pancreatic cancer xenograft; settings: lung cancer and pancreatic cancer xenograft murine models; cited from earlier work
[5] = system: multiple sclerosis mice models; settings: two different multiple sclerosis mice models; cited from earlier work
[6] = hydroxamic acids such as QTX125; cited from earlier work
[7] = Photostability at solid state (chemical purity by HPLC after illumination); type: physicochemical; settings: solid-state; for degradation (in words): up to 171 hours
Experimental: (§1) The method for determining purity by HPLC—used throughout these examples—used the following parameters:
(§2) The photostability of novel crystalline forms of QTX125 was assessed at solid state and in solution. Where ‘forced illumination’ conditions were used, samples were illuminated at 12 Klux/hour and 2.8 UV W/m^2/hour. Samples were stored at a temperature of 30° C. Following incubation, the chemical purity of QTX125 was measured by HPLC.
(§3) The following index is provided to aid navigation of the data presented in Tables 3.1.1 to 3.3.6: • 3.1.x—Assessment of the photostability of QTX125 Form 2. • 3.2.x—Assessment of the photostability of amorphous QTX125. • 3.3.x—Assessment of the photostability of the QTX125 1:2 L-Lysine adduct. • 3.x.1—Samples (at solid state) stored in unsealed clear glass bottles, subject to forced illumination. • 3.x.2—Samples (at solid state) sealed under nitrogen in clear glass bottles, subject to forced illumination. • 3.x.3—Samples (at solid state) sealed under nitrogen in amber glass bottles, illuminated under ambient laboratory conditions • 3.x.4—Samples (at solid state) sealed under nitrogen in amber glass bottles, subject to forced illumination. • 3.x.5—Samples (in solution) sealed under nitrogen in amber glass bottles, illuminated under ambient laboratory conditions. • 3.x.6—Samples (in solution) sealed under nitrogen in amber glass bottles, subject to forced illumination.

[8] = Photostability in solution (THF and water), HPLC; type: physicochemical; settings: in solution (THF and water), sealed under nitrogen in amber glass bottles; for degradation (in words): up to 171 hours
Experimental: as §1, §2, §3

[9] = sealed under nitrogen in amber glass bottles, ambient laboratory conditions, 0 hours
[10] = sealed under nitrogen in amber glass bottles, ambient laboratory conditions, 3 hours
[11] = sealed under nitrogen in amber glass bottles, ambient laboratory conditions, 50 hours
[12] = sealed under nitrogen in amber glass bottles, ambient laboratory conditions, 171 hours
[13] = sealed under nitrogen in amber glass bottles, ambient laboratory conditions, 171 hours, listed as Amorphous
[14] = sealed under nitrogen in amber glass bottles, forced illumination, 0 hours
[15] = sealed under nitrogen in amber glass bottles, forced illumination, 3 hours
[16] = sealed under nitrogen in amber glass bottles, forced illumination, 50 hours
[17] = sealed under nitrogen in amber glass bottles, forced illumination, 171 hours
[18] = sealed under nitrogen in amber glass bottles, forced illumination, 171 hours, listed as Amorphous
[19] = sealed under nitrogen in clear glass bottles, forced illumination
[20] = sealed under nitrogen in clear glass bottles, forced illumination, 0 hours
[21] = sealed under nitrogen in clear glass bottles, forced illumination, 3 hours
[22] = sealed under nitrogen in clear glass bottles, forced illumination, 50 hours
[23] = sealed under nitrogen in clear glass bottles, forced illumination, 171 hours
[24] = unsealed clear glass bottles, forced illumination
[25] = unsealed clear glass bottles, forced illumination, 0 hours
[26] = unsealed clear glass bottles, forced illumination, 3 hours
[27] = unsealed clear glass bottles, forced illumination, 50 hours
[28] = unsealed clear glass bottles, forced illumination, 171 hours
[29] = ambient laboratory conditions, 0 hours
[30] = ambient laboratory conditions, 3 hours
[31] = ambient laboratory conditions, 50 hours
[32] = ambient laboratory conditions, 171 hours
[33] = ambient laboratory conditions, 171 hours, listed as Amorphous
[34] = forced illumination, 171 hours, listed as Amorphous

Structure (SMILES): O=C(NO)c1ccc(CNC(=O)c2[nH]c(-c3ccc(O)cc3)cc2-c2ccoc2)cc1 [QTX125, 3-(3-furyl)-N-{4-[(hydroxyamino)carbonyl]benzyl}-5-(4-hydroxyphenyl)-1H-pyrrole-2-carboxamide]
- genotoxicity, in particular clastogenicity or aneugenicity [1]: no evidence of genotoxicity
- pharmacokinetic properties: half-lives and distribution volumes [2]: higher half-lives and distribution volumes
- physical and chemical stability in solution [3]: physical and chemical instability
- HDAC 6 inhibition (in words) (HDAC 6): highly selective and highly potent
- antitumoral efficacy [4]: high antitumoral efficacy
- efficacy in multiple sclerosis models [5]: high efficacy
- solubility in water [6]: very low solubility

Structure (SMILES): O=C(NO)c1ccc(CNC(=O)c2[nH]c(-c3ccc(O)cc3)cc2-c2ccoc2)cc1 [amorphous QTX125, 3-(3-Furyl)-N-{4-[(hydroxyamino)carbonyl]benzyl}-5-(4-hydroxyphenyl)-1H-pyrrole-2-carboxamide]
- HPLC peak area, QTX125 RRT 1.00 [7, 9]: 96.74%
- HPLC peak area, RRT 1.04 [7, 9]: 1.32%
- HPLC peak area, RRT 1.12 [7, 9]: 0.35%
- HPLC peak area, QTX125 RRT 1.00 [7, 10]: 96.75%
- HPLC peak area, RRT 1.04 [7, 10]: 1.26%
- HPLC peak area, RRT 1.12 [7, 10]: 0.36%
- HPLC peak area, QTX125 RRT 1.00 [7, 11]: 96.61%
- HPLC peak area, RRT 1.04 [7, 11]: 0.71%
- HPLC peak area, RRT 1.12 [7, 11]: 0.39%
- HPLC peak area, QTX125 RRT 1.00 [7, 12]: 96.16%
- HPLC peak area, RRT 1.04 [7, 12]: 1.46%
- HPLC peak area, RRT 1.12 [7, 12]: 0.39%
- HPLC peak area, QTX125 RRT 1.00 [7, 13]: 96.16%
- HPLC peak area, RRT 1.04 [7, 13]: 1.46%
- degradation (in words) ([7]; sealed under nitrogen in amber glass bottles, ambient laboratory conditions): evidence of slight degradation
- HPLC peak area, QTX125 RRT 1.00 [7, 14]: 96.74%
- HPLC peak area, RRT 1.04 [7, 14]: 1.32%
- HPLC peak area, RRT 1.12 [7, 14]: 0.35%
- HPLC peak area, QTX125 RRT 1.00 [7, 15]: 96.94%
- HPLC peak area, RRT 1.04 [7, 15]: 1.04%
- HPLC peak area, RRT 1.12 [7, 15]: 0.35%
- HPLC peak area, QTX125 RRT 1.00 [7, 16]: 96.12%
- HPLC peak area, RRT 1.04 [7, 16]: 1.09%
- HPLC peak area, RRT 1.12 [7, 16]: 0.38%
- HPLC peak area, QTX125 RRT 1.00 [7, 17]: 94.43%
- HPLC peak area, RRT 1.04 [7, 17]: 1.70%
- HPLC peak area, RRT 1.12 [7, 17]: 0.47%
- HPLC peak area, QTX125 RRT 1.00 [7, 18]: 94.43%
- HPLC peak area, RRT 1.04 [7, 18]: 1.70%
- HPLC peak area, RRT 1.12 [7, 18]: 0.47%
- degradation (in words) ([7]; sealed under nitrogen in amber glass bottles, forced illumination): degrades slightly
- colour change of the solid material [7, 19]: change in colour from off white/beige to brown
- HPLC peak area, QTX125 RRT 1.00 [7, 20]: 96.74%
- HPLC peak area, RRT 1.04 [7, 20]: 1.32%
- HPLC peak area, RRT 1.12 [7, 20]: 0.35%
- HPLC peak area, QTX125 RRT 1.00 [7, 21]: 95.97%
- HPLC peak area, RRT 1.04 [7, 21]: 1.51%
- HPLC peak area, RRT 1.12 [7, 21]: 0.38%
- HPLC peak area, QTX125 RRT 1.00 [7, 22]: 89.64%
- HPLC peak area, RRT 1.04 [7, 22]: 4.38%
- HPLC peak area, RRT 1.12 [7, 22]: 0.60%
- HPLC peak area, QTX125 RRT 1.00 [7, 23]: 84.46%
- HPLC peak area, RRT 1.04 [7, 23]: 6.61%
- HPLC peak area, RRT 1.12 [7, 23]: 0.90%
- degradation (in words) [7, 19]: degrades under forced illumination to two principal components
- colour change of the solid material [7, 24]: change in colour from off white/beige to brown
- HPLC peak area, QTX125 RRT 1.00 [7, 25]: 96.74%
- HPLC peak area, RRT 1.04 [7, 25]: 1.32%
- HPLC peak area, RRT 1.12 [7, 25]: 0.35%
- HPLC peak area, QTX125 RRT 1.00 [7, 26]: 95.81%
- HPLC peak area, RRT 1.04 [7, 26]: 1.61%
- HPLC peak area, RRT 1.12 [7, 26]: 0.39%
- HPLC peak area, QTX125 RRT 1.00 [7, 27]: 88.70%
- HPLC peak area, RRT 1.04 [7, 27]: 4.64%
- HPLC peak area, RRT 1.12 [7, 27]: 0.63%
- HPLC peak area, QTX125 RRT 1.00 [7, 28]: 83.01%
- HPLC peak area, RRT 1.04 [7, 28]: 7.15%
- HPLC peak area, RRT 1.12 [7, 28]: 0.90%
- degradation (in words) [7, 24]: degrades under forced illumination to two principal components
- HPLC peak area, QTX125 RRT 1.00 [8, 29]: 96.74%
- HPLC peak area, RRT 1.04 [8, 29]: 1.32%
- HPLC peak area, RRT 1.12 [8, 29]: 0.35%
- HPLC peak area, QTX125 RRT 1.00 [8, 30]: 92.10%
- HPLC peak area, RRT 1.04 [8, 30]: 0.94%
- HPLC peak area, RRT 1.12 [8, 30]: 0.48%
- HPLC peak area, QTX125 RRT 1.00 [8, 31]: 95.89%
- HPLC peak area, RRT 1.04 [8, 31]: 1.03%
- HPLC peak area, RRT 1.12 [8, 31]: 0.54%
- HPLC peak area, QTX125 RRT 1.00 [8, 32]: 91.98%
- HPLC peak area, RRT 1.04 [8, 32]: 2.30%
- HPLC peak area, RRT 1.12 [8, 32]: 1.14%
- HPLC peak area, QTX125 RRT 1.00 [8, 33]: 91.98%
- HPLC peak area, RRT 1.04 [8, 33]: 2.30%
- HPLC peak area, RRT 1.12 [8, 33]: 1.14%
- degradation (in words) ([8]; ambient laboratory conditions): degrades
- HPLC peak area, QTX125 RRT 1.00 ([8]; forced illumination, 0 hours): 96.74%
- HPLC peak area, RRT 1.04 ([8]; forced illumination, 0 hours): 1.32%
- HPLC peak area, RRT 1.12 ([8]; forced illumination, 0 hours): 0.35%
- HPLC peak area, QTX125 RRT 1.00 ([8]; forced illumination, 3 hours): 96.31%
- HPLC peak area, RRT 1.04 ([8]; forced illumination, 3 hours): 0.92%
- HPLC peak area, RRT 1.12 ([8]; forced illumination, 3 hours): 0.46%
- HPLC peak area, QTX125 RRT 1.00 ([8]; forced illumination, 50 hours): 94.55%
- HPLC peak area, RRT 1.04 ([8]; forced illumination, 50 hours): 1.27%
- HPLC peak area, RRT 1.12 ([8]; forced illumination, 50 hours): 0.55%
- HPLC peak area, QTX125 RRT 1.00 ([8]; forced illumination, 171 hours): 87.29%
- HPLC peak area, RRT 1.04 ([8]; forced illumination, 171 hours): 2.33%
- HPLC peak area, RRT 1.12 ([8]; forced illumination, 171 hours): 1.03%
- HPLC peak area, QTX125 RRT 1.00 [8, 34]: 87.29%
- HPLC peak area, RRT 1.04 [8, 34]: 2.33%
- HPLC peak area, RRT 1.12 [8, 34]: 1.03%
- degradation (in words) ([8]; forced illumination): degrades
